# Tested on: xenogeneic mouse graft versus host disease (GVHD) model
# Settings: in vivo
# Description: FIG. 33 depicts a schematic for treatment of a xenogeneic mouse graft versus host disease (GVHD) model with a ruxolitinib and activated Treg cells regimen. PBMC=peripheral blood mononuclear cells.
# A xenogeneic mouse graft versus host disease (GVHD) model was treated with a ruxolitinib and activated CB Treg cells regimen, as depicted in FIG. 33. NSG mice underwent sublethal irradiation on day −1 followed by injection of 1×10^7 donor peripheral blood (PB) mononuclear cells (MNCs) on day 0. Oral ruxolitinib at 1 mg daily was fed continuously to the mice in the presence or absence of 1×10^7 CB Treg cells, tagged with CellTrace™ Violet dye (ThermoFisher), administered on days +4, +7, +11, +18. Mice were followed every other day for weight, GVHD score and survival. Serial blood draws were performed to analyze for cell compartment and cytokine assays.
compound,measurement,value
N#CC[C@H](C1CCCC1)n1cc(-c2ncnc3[nH]ccc23)cn1 [ruxolitinib],CB Treg persistence,improved

# Reference: patent publication US20260103679A1, “COMPOSITIONS COMPRISING REGULATORY T CELLS AND METHODS OF USING THE SAME” (Cellenkos, Inc., priority 2021, published 2026)
